Patent US11078197B2, “5-membered and bicyclic heterocyclic amides as inhibitors of rock” (BRISTOL-MYERS SQUIBB COMPANY, priority 2017, dated 2021)

Biological target: ROCK2 (Homo sapiens (Human), UniProt O75116)
Experiment: ROCK2 assay (peptide phosphorylation, LABCHIP 3000 Reader)
Assay type: biochemical
Conditions: 5 μM ATP, 1.5 μM peptide substrate, dose-response
Procedure: After incubation, the reaction was terminated by the addition of EDTA and the phosphorylated and non-phosphorylated peptides separated using a LABCHIP®3000 Reader (Caliper Life Sciences). […] Compounds were tested in dose-response format, and the inhibition of kinase activity was calculated at each concentration of compound. […] Representative Examples were tested in the ROCK2 assay described above and found having ROCK2 inhibitory activity.

ROCK2, sequence (O75116 whole entry, species assumed): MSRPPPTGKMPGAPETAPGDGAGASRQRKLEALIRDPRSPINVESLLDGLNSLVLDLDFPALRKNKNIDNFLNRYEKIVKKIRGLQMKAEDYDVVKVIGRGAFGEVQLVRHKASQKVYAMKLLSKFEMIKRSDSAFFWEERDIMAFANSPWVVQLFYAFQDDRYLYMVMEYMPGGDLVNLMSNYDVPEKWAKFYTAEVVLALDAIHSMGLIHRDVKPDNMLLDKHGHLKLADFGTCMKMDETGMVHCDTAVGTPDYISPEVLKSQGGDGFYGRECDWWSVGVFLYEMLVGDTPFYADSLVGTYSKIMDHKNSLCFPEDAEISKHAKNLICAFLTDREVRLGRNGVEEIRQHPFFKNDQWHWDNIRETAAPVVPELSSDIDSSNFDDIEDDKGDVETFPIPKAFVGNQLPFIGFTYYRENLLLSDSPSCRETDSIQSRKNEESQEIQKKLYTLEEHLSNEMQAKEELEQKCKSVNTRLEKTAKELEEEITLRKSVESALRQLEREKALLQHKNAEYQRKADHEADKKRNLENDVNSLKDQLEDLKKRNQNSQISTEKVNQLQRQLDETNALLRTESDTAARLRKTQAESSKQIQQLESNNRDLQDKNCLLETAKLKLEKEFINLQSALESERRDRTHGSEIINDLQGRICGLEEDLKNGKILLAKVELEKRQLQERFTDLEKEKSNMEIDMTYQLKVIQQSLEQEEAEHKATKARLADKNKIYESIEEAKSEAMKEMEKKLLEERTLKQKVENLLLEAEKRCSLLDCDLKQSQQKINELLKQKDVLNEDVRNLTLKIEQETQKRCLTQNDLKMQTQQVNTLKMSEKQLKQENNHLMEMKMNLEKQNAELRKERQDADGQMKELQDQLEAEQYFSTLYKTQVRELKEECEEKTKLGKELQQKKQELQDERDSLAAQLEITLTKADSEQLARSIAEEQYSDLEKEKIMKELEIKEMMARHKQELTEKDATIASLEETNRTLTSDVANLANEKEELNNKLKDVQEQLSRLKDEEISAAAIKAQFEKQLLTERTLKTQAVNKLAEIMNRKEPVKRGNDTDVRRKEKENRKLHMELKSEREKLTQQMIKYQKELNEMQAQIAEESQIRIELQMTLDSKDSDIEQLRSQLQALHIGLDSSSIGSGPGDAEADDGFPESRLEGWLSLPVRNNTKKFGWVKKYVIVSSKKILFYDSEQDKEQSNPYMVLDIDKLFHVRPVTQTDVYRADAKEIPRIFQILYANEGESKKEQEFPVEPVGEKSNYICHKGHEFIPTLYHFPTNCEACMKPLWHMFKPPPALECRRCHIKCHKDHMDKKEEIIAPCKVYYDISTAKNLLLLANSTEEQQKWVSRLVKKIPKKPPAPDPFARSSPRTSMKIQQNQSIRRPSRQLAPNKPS

IC50 [nM]	Compound
330	2-cyclopropyl-4- {[(aR)-6-{4-[(1R)- 1-hydroxyethyl]-2,5- dioxoimidazolidin-1- yl}spiro[3.3]heptan- 2-yl]oxy}-1,3- thiazole-5- carboxamide [Example 109]
3100	NC(=O)c1cc2sccc2nc1OC1CC2(CC(NC(=O)C3CC(=O)N(Cc4ccc(Cl)cc4)C3)C2)C1 (single isomer, unassigned) [Example 78, N-[6-({6-carbamoylthieno[3,2-b]pyridin-5-yl}oxy)spiro[3.3]heptan-2-yl]-1-[(4-chlorophenyl)methyl]-5-oxopyrrolidine-3-carboxamide]
2340	NC(=O)c1cc2sccc2nc1OC1CC2(CC(NC(=O)C3CC(=O)N(Cc4ccc(Cl)cc4)C3)C2)C1 (single isomer, unassigned) [Example 80, N-[6-({6-carbamoylthieno[3,2-b]pyridin-5-yl}oxy)spiro[3.3]heptan-2-yl]-1-[(4-chlorophenyl)methyl]-5-oxopyrrolidine-3-carboxamide]
42.7	[H][C@]1(Oc2nc(C)sc2C(N)=O)C[C@]2(C[C@@H](NC(=O)c3cnn(-c4ccc(Cl)cc4)c3C)C2)C1 (stereo partly drawn) [Example 1, 4-(((aR)-6-(1-(4-Chlorophenyl)-5-methyl-1H-pyrazole-4-carboxamido)spiro[3.3]heptan-2-yl)oxy)-2-methylthiazole-5-carboxamide]
68.8	[H][C@]1(Oc2nc(C3CC3)sc2C(N)=O)C[C@]2(C[C@@H](NC(=O)c3nc(C(F)(F)F)n4cc(-n5ccccc5=O)ccc34)C2)C1 (stereo partly drawn) [Example 3, 2-Cyclopropyl-4-(((aR)-6-(6-(2-oxopyridin-1(2H)-yl)-3-(trifluoromethyl)imidazo[1,5-a]pyridine-1-carboxamido)spiro[3.3]heptan-2-yl)oxy)thiazole-5-carboxamide]
25.6	[H][C@]1(Oc2nn3ccccc3c2C(N)=O)C[C@]2(C[C@@H](NC(=O)c3cnn4c(C5CC5)c(OCC(C)(C)O)ccc34)C2)C1 (some centres unmarked) [Example 6]
5.4	CC(C)(O)COc1ccc2c(C(=O)NC3CC4(C3)CC(Oc3nc5c(cc3C(N)=O)CCCN5)C4)cnn2c1C1CC1 [Example 8, 2-(((aR)-6-(7-Cyclopropyl-6-(2-hydroxy-2-methylpropoxy)pyrazolo[1,5-a]pyridine-3-carboxamido)spiro[3.3]heptan-2-yl)oxy)-5,6,7,8-tetrahydro-1,8-naphthyridine-3-carboxamide]
349	NC(=O)c1cc2sccc2nc1OC1CC2(CC(NC(=O)C3CCC(C(F)(F)F)CC3)C2)C1 (centres unmarked) [Example 9, 5-((6-(4-(Trifluoromethyl)cyclohexane-1-carboxamido)spiro[3.3]heptan-2-yl)oxy)thieno[3,2-b]pyridine-6-carboxamide]
23.3	NC(=O)c1sc(C2CC2)nc1O[C@H]1CC2(C[C@H](NC(=O)c3cnn4cc(OCC(F)F)ccc34)C2)C1 (stereo partly drawn) [Example 11, 2-cyclopropyl-4-(((aR)-6-(6-(2,2-difluoroethoxy)pyrazolo[1,5-a]pyridine-3-carboxamido)spiro[3.3]heptan-2-yl)oxy)thiazole-5-carboxamide]
40.1	CC(C)(O)COc1ccc2c(C(=O)NC3CC4(C3)CC(Oc3nc5c(cc3C(N)=O)COCC5)C4)cnn2c1 [Example 12, 6-(2-hydroxy-2-methylpropoxy)-N-[(aR)-6-({3-carbamoyl-5H,7H,8H-pyrano[4,3-b]pyridin-2-yl}oxy)spiro[3.3]heptan-2-yl]pyrazolo[1,5-a]pyridine-3-carboxamide]
576	NC(=O)c1cc2c(nc1O[C@H]1C[C@]3(C1)C[C@H](N1C(=O)CN(Cc4ccccc4)CC1=O)C3)CCOC2 (some centres unmarked) [Example 13]
14.1	Cn1cc(C(N)=O)c(O[C@H]2C[C@@]3(C[C@H](NC(=O)c4cnn5c(C6CC6)c(OCC(C)(C)O)ccc45)C3)C2)n1 (stereo partly drawn) [Example 14, 3-({(aR)-6-[7-cyclopropyl-6-(2-hydroxy-2-methylpropoxy)pyrazolo [1,5-a]pyridine-3-amido]spiro[3.3]heptan-2-yl}oxy)-1-methyl-1H-pyrazole-4-carboxamide]
12.5	CC(C)(O)COc1ccc2c(C(=O)N[C@H]3C[C@]4(C3)C[C@H](Oc3nn(-c5ccccc5)cc3C(N)=O)C4)cnn2c1C1CC1 (stereo partly drawn) [Example 15, 3-({(aR)-6-[7-cyclopropyl-6-(2-hydroxy-2-methylpropoxy)pyrazolo [1,5-a]pyridine-3-amido]spiro[3.3]heptan-2-yl}oxy)-1-phenyl-1H-pyrazole-4-carboxamide]
18.5	CC(C)(O)COc1ccc2c(C(=O)N[C@H]3C[C@]4(C3)C[C@H](Oc3nc(-c5ccccc5)sc3C(N)=O)C4)cnn2c1 (stereo partly drawn) [Example 17, 4-({(aR)-6-[6-(2-hydroxy-2-methylpropoxy)pyrazolo [1,5-a]pyridine-3-amido]spiro[3.3]heptan-2-yl}oxy)-2-phenyl-1,3-thiazole-5-carboxamide]
13.4	CC(C)(O)COc1ccc2c(C(=O)N[C@H]3C[C@]4(C3)C[C@H](Oc3nc(-c5ccccc5)sc3C(N)=O)C4)cnn2c1C1CC1 (stereo partly drawn) [Example 18, 4-({(aR)-6-[7-cyclopropyl-6-(2-hydroxy-2-methylpropoxy)pyrazolo [1,5-a]pyridine-3-amido]spiro[3.3]heptan-2-yl}oxy)-2-phenyl-1,3-thiazole-5-carboxamide]
10.5	CCn1cc(C(N)=O)c(O[C@H]2C[C@@]3(C[C@H](NC(=O)c4cnn5c(C6CC6)c(OCC(C)(C)O)ccc45)C3)C2)n1 (stereo partly drawn) [Example 19, 3-({(aR)-6-[7-cyclopropyl-6-(2-hydroxy-2-methylpropoxy)pyrazolo [1,5-a]pyridine-3-amido]spiro[3.3]heptan-2-yl}oxy)-1-ethyl-1H-pyrazole-4-carboxamide]
18.9	Cc1nc(O[C@H]2C[C@@]3(C[C@H](NC(=O)c4cnn5cc(OCC(C)(C)O)ccc45)C3)C2)c(C(N)=O)s1 (stereo partly drawn) [Example 21, 4-({(aR)-6-[6-(2-hydroxy-2-methylpropoxy)pyrazolo [1,5-a]pyridine-3-amido]spiro[3.3]heptan-2-yl}oxy)-2-methyl-1,3-thiazole-5-carboxamide]
7	Cc1nc(O[C@H]2C[C@@]3(C[C@H](NC(=O)c4cnn5c(C6CC6)c(OCC(C)(C)O)ccc45)C3)C2)c(C(N)=O)s1 (stereo partly drawn) [Example 22, 4-({(aR)-6-[7-cyclopropyl-6-(2-hydroxy-2-methylpropoxy)pyrazolo [1,5-a]pyridine-3-amido]spiro[3.3]heptan-2-yl}oxy)-2-methyl-1,3-thiazole-5-carboxamide]
77.7	COCCn1cc(C(N)=O)c(O[C@H]2C[C@@]3(C[C@H](NC(=O)c4cnn5c(C6CC6)c(OCC(C)(C)O)ccc45)C3)C2)n1 (stereo partly drawn) [Example 23, 3-({(aR)-6-[7-cyclopropyl-6-(2-hydroxy-2-methylpropoxy)pyrazolo [1,5-a]pyridine-3-amido]spiro[3.3]heptan-2-yl}oxy)-1-(2-methoxyethyl)-1H-pyrazole-4-carboxamide]
1480	COCCn1ncc(C(N)=O)c1O[C@H]1C[C@@]2(C[C@H](NC(=O)c3cnn4c(C5CC5)c(OCC(C)(C)O)ccc34)C2)C1 (stereo partly drawn) [Example 24, 5-({(aR)-6-[7-cyclopropyl-6-(2-hydroxy-2-methylpropoxy)pyrazolo [1,5-a]pyridine-3-amido]spiro[3.3]heptan-2-yl}oxy)-1-(2-methoxyethyl)-1H-pyrazole-4-carboxamide]
25.4	CC(C)(O)COc1ccc2c(C(=O)N[C@H]3C[C@]4(C3)C[C@H](Oc3[nH]ncc3C(N)=O)C4)cnn2c1C1CC1 (stereo partly drawn) [Example 26, 5-({(aR)-6-[7-cyclopropyl-6-(2-hydroxy-2-methylpropoxy)pyrazolo [1,5-a]pyridine-3-amido]spiro[3.3]heptan-2-yl}oxy)-1H-pyrazole-4-carboxamide]

Compound	IC50 [nM]
CC(C)CC1NC(=O)N([C@H]2C[C@@]3(C[C@H](Oc4nc(C5CC5)sc4C(N)=O)C3)C2)C1=O (single isomer, unassigned) [Example 110, 2-cyclopropyl-4-{[{aR)-6-[4-(2-methylpropyl)-2,5-dioxoimidazolidin-1-yl]spiro[3.3]heptan-2-yl]oxy}-1,3-thiazole-5-carboxamide]	12.2
CC(C)CC1NC(=O)N([C@H]2C[C@@]3(C[C@H](Oc4nc(C5CC5)sc4C(N)=O)C3)C2)C1=O (single isomer, unassigned) [Example 111]	106
Cn1cc(C(N)=O)c(OC2CC3(CC(NC(=O)c4cnn5cc(OCCC(F)(F)F)ccc45)C3)C2)n1 [Example 4, N-((aR)-6-((4-Carbamoyl-1-methyl-1H-pyrazol-3-yl)oxy)spiro[3.3]heptan-2-yl)-6-(3,3,3-trifluoropropoxy)pyrazolo[1,5-a]pyridine-3-carboxamide]	20.1
CC(C)(O)COc1ccc2c(C(=O)NC3CC4(C3)CC(Oc3nn(CC5CC5)cc3C(N)=O)C4)cnn2c1C1CC1 (centres unmarked) [Example 5]	52.6
CC(C)(O)COc1ccc2c(C(=O)NC3CC4(C3)CC(Oc3nc5ncccc5cc3C(N)=O)C4)cnn2c1C1CC1 [Example 7, 2-(((aR)-6-(7-Cyclopropyl-6-(2-hydroxy-2-methylpropoxy)pyrazolo[1,5-a]pyridine-3-carboxamido)spiro[3.3]heptan-2-yl)oxy)-1,8-naphthyridine-3-carboxamide]	4.8
CC(C)CC1NC(=O)N([C@H]2C[C@@]3(C[C@H](Oc4nc(C5CC5)sc4C(N)=O)C3)C2)C1=O (some centres unmarked) [Example 10]	27.4
CC(C)(O)COc1ccc2c(C(=O)NC3CC4(C3)CC(Oc3nn(CC5CCNCC5)cc3C(N)=O)C4)cnn2c1C1CC1 [Example 20, 3-({(aR)-6-[7-cyclopropyl-6-(2-hydroxy-2-methylpropoxy)pyrazolo [1,5-a]pyridine-3-amido]spiro[3.3]heptan-2-yl}oxy)-1-[(piperidin-4-yl)methyl]-1H-pyrazole-4-carboxamide]	6.8
Cc1nc(O[C@H]2C[C@@]3(C[C@H](NC(=O)c4nn(C(F)F)c5cc(OCC(C)(C)O)ccc45)C3)C2)c(C(N)=O)s1 (stereo partly drawn) [Example 25, N-{(aR)-6-[(5-carbamoyl-2-methyl-1,3-thiazol-4-yl)oxy]spiro[3.3]heptan-2-yl}-1-(difluoromethyl)-6-(2-hydroxy-2-methylpropoxy)-1H-indazole-3-carboxamide]	6.4
